The text below walks through data of patent publication US10350257B2, “Pharmaceutical composition containing complex extract of Crataegi fructus and Citri pericarpium as an active ingredient for treating or preventing obesity or lipid-related metabolic diseases” (NEUMED, priority 2012, dated 2019).

Marks after values point to notes of the source that are not given here.

In test [1] the test system is diet-induced obesity (DIO) white rat models. Briefly: Body weight gain in high-fat diet obese animal models (8 weeks). It is filed as in vivo, Sprague-Dawley male white rats. The following applies: oral twice a day for 8 weeks, extracts 100 mg/kg, HCA 390 mg/kg. As to the method:
(§1) Animal experiments were performed on Sprague-Dawley ([…] BIO Korea) male white rats weighing 80 to 100 g. 3. Selection of Experimental Groups • Normal group (AIN-93G, Normal diet+fed with secondary distilled water); • Control group (60% Kcal high-fat diet+fed with secondary distilled water); • Positive control group (60% Kcal high-fat diet+administered with 390 mg/kg of […] Fructus extract-administered group (high-fat diet+administered with 100 mg/kg of […] Fructus extract of Comparative Example 1); • Citri Pericarpium extract-administered group (high-fat diet+administered with 100 mg/kg of the Citri Pericarpium extract of Comparative Example 2); and • Complex extract-administered group (high-fat diet+administered with 100 mg/kg of the complex extract of Example 1 or 2). The temperature was 22±2° C., the relative humidity was 50±10%, and the dark-light cycle (light on at 07:00 light off at 19:00) was controlled with fluorescent lighting. […] Moreover, all the experimental groups were sacrificed after 8 weeks to collect blood samples, serums were separated from the blood samples, and the blood triglyceride (mg/dL) and the total cholesterol (mg/dL) were analyzed using a biochemical analyzer ([…], USA).

For test [2] the following is noted: 1,500 mg HCA daily, 12-week clinical trial; cited from earlier work.
The test system of test [3] is diet-induced obesity (DIO) white rat models. Briefly: Blood triglyceride and total cholesterol in serum of high-fat diet obese animal models after 8 weeks. It is filed as in vivo, Sprague-Dawley male white rats. The following applies: serum after 8 weeks; high-fat diet rats; extracts 100 mg/kg, HCA 390 mg/kg oral twice a day. As to the method:
as §1

For test [4] the following is noted: about 3 g daily, after 3 months, clinical trials; cited from earlier work.

As to `O=C(O)CC(O)(C(=O)O)C(O)C(=O)O` (stereo not shown) [HCA, hydroxycitrate], in test [1] (60% Kcal high-fat diet rats, mean±SD), the Body weight gain was 333.2 ± 12.2 g. In addition, in test [1] (vs high-fat diet control group), the “Reduction in rate of body weight gain” value was 7.3* %. For the same molecule, the “Weight loss effect compared to the placebo group” value in test [2] is recorded as “no weight loss effect”. Moreover, in test [3], the Total cholesterol is listed as 59.8 ± 11.2 mg/dL and the Total triglyceride is reported as 134.2 ± 21.3 mg/dL.

conjugated linoleic acid: in test [4], the “Average body weight lost” value is given as 2.5 kg and the Body fat reduced is given as 15 to 20%.
